Source: US5254801A, “Heterologous dominant conditional lethal gene which is a phosphonate monoester hydrolase and use thereof in plants” (Monsanto Company, priority 1990, dated 1993)

Legend:
[1] = Translocation of radiolabelled compound applied to tomato leaves; assay type: in vivo; settings: tissues analysed after two days
Procedure: The critical tests for a prophytotoxin to be used in negative selection, cell ablation and as a gametocide are that the compound is non-phytotoxic per se but can be hydrolyzed into a phytotoxin by the phosphonate monoester hydrolase protein. The most general and specific method to determine if a protoxin is hydrolyzed to a toxic form of glyphosate is a HPLC assay. The compounds are dissolved at 100 mM concentration in a suitable buffer such as 10 mM TAPS, (N-Tris(hydroxymethyl)methyl-2-aminopropane sulfonic acid) pH 9.0. Triplicate samples (0.1 ml) of the compound are then diluted with 0.9 ml of 10 mM TAPS, pH 9.0 and with 0.9 ml 10 mM TAPS, pH 9.0 plus one unit (1 μmol/min) of enzyme. After 24 hour incubation at 25° C., the samples are injected onto a HPLC column for glyphosate analysis. […] The protoxin and glyphosate are separated on an anion exchange column. the glyphosate is oxidized as it elutes in the presence of bleach and is then derivatized by o-pthaldehyde to a fluorescent derivative which can be quantitatively measured by a fluorescence monitor. […] After two days, the plant is dissected into individual tissues and the amount of protoxin in each tissue determined. […] The tissue samples were then combusted and the amount of radiolabelled compound in each tissue determined by scintillation counting.

[2] = system: E. coli JM101/vector control; assay: Conditional lethal phenotype test on MOPS minimal plates; assay type: cell-based
Source text: The NcoI-BamHI pehA:1 fragment was removed from pMON9420 by restricting the DNA with both enzymes, separating the fragments on an agarose gel, and purifying the pehA fragment from the gel using the GeneClean kit. In a similar manner the BamHI-ClaI pehA:1 fragment was obtained from pMON9421 and both were ligated into an E. coli expression vector to reconstruct the pehA:1 gene behind the RecA promoter with the […] gene 10L leader. The resulting vector, pMON9428 (FIG. 3), was transformed into E. coli strain JM101 using calcium chloride transformation and transformants selected on LB agar with 100 μg/ml spectinomycin. A single colony was isolated and confirmed by restriction mapping to contain pMON9428. The JM101/pMON9428 was then streaked out on LB agar plates containing 100 μg/ml spectinomycin and […] XPP. As a control, JM101 containing the RecA expression vector without the pehA:1 gene was streaked out on the same plate. The JM101/pMON9428 formed blue colonies while the JM101 with the control vector formed white colonies. […] The JM101/pMON9428 and vector control strain were then plated on MOPS minimal medium containing 0.05 mM HK2 PO4 as the phosphate source and 100 μg/ml spectinomycin. […] To test for a conditional lethal phenotype, both strains were streaked side by side on a MOPS minimal plate with 0.05 mM KPO4, 100 μg/ml spectinomycin and 10 mM glyceryl glyphosate. […] To confirm the lethal phenotype was the result of the degradation of the glyceryl glyphosate and subsequent inhibition of aromatic amino acid biosynthesis by glyphosate, both E. coli strains were plated on MOPS minimal medium with 0.05 mM KPO4, 100 μg/ml spectinomycin, 10 mM glyceryl glyphosate and supplemented with aromatic compounds consisting of L-tyrosine, L-tryptophan, L-phenylalanine, each at 100 μg/ml, 2,3 -dihydroxybenzoicacid and para-aminobenzoic acid, each at 5 μg/ml. […] This confirmed that the conditional lethal phenotype observed in the presence of the glyceryl glyphosate was the result of its conversion to and subsequent inhibition of EPSPS by glyphosate.

In the case of `O=C(O)CNCP(=O)(O)OCC(O)CO` (stereo not drawn) [glyceryl glyphosate, glycine, N-([hydroxy (2,3 dihydroxy propoxy)phosphonyl]methyl)], the “Translocation to developing anthers” value [1] is reported as “translocates to developing anthers”, the “Colony formation with aromatic compound supplement” value ([2]; 10 mM glyceryl glyphosate plus L-tyrosine, L-tryptophan, L-phenylalanine, 2,3-dihydroxybenzoic acid, para-aminobenzoic acid, vector control strain) is reported as “formed colonies” and the “Toxicity (colony formation)” value ([2]; 10 mM glyceryl glyphosate, MOPS minimal plate, JM101/vector control) is reported as “non-toxic”.
